A melting point compilation (Tetko et al.; mined from patent text by program, amines drawn as free bases though some values may be those of a salt)

Row | Compound | melting point
1 | OC(CCl)CN1CCN(C(c2ccccc2)c2ccccc2)CC1 (stereo not given) | 114 to 116 °C
2 | CCOC(=O)C1=C(C)NC(=S)N(C(=O)OCC)C1c1cccc(C)c1 (stereo not given) | 93 to 95 °C
3 | C#CCN1CCN(c2c(Cl)cc3c(=O)c(C(=O)O)cn4c3c2CCC4C)CC1 (stereo not given) | 211 to 213 °C
4 | CC1(O)c2ccccc2-c2[nH]nc(-c3ccccc3)c21 (stereo not given) | 154 to 155 °C
5 | COc1ccc(C(=O)Cc2ccc(Br)cc2)c(Cl)c1Cl | 163 to 164 °C
6 | Cn1c2ccccc2c2sc3c(C=O)cccc3c21 | 128 to 130 °C
7 | Cc1cc(O)ccc1COCCn1ccnn1 | 92 to 93 °C
8 | COc1ccc(S(=O)(=O)N(Cc2nnnn2C)c2ccc(Cl)cc2Cc2c(F)cccc2F)cc1OC | 136 °C
9 | CCN(CC)CCNC(=O)c1cc(I)cc2cc3ccccc3nc12 | 108 to 110 °C
10 | COc1ccc(S(=O)(=O)N2C(=O)C(O[Si](C)(C)C)(c3ccccc3OC(F)(F)F)c3cc(Cl)ccc32)c(OC)c1 (stereo not given) | 181 °C
11 | COc1ccc(-c2cc(=O)n(Cc3ccc(Cl)cc3)nc2-c2ccc(OC)cc2)cc1 | 124 to 127 °C
12 | CCCCCCCCCCc1ccc2c(c1)-n1c(C)nnc1C(C)N=C2c1ccccc1 (stereo not given) | 111 to 112 °C
13 | CCOC(=O)C1=C(c2cccs2)Nc2n[nH]cc2C1c1ccccc1Cl (stereo not given) | 200 °C
14 | COC(=O)C=Cc1ccc2c(c1)OCCO2 | 66 to 68 °C
15 | CCOC(=O)c1ccc(NC(=O)c2ccc3c(c2)OCC(C)(C)CO3)cc1 | 181 to 182 °C
16 | O[C@H](COc1cccc2[nH]ccc12)CN1CCC(c2c[nH]c3cc(Cl)ccc23)CC1 | 90 to 95 °C
17 | CC1(C)Oc2ccc(C#N)cc2C2C1OC(=O)CN2c1ccccc1 (stereo not given) | 241 to 243 °C
18 | CC(C)CNC(=O)CN1CCN(Cc2ccc3c(c2)NC(=O)C(C)O3)CC1 (stereo not given) | 150 °C
19 | COc1cc(C(C)C)c2c(c1)S(=O)(=O)N(CBr)C2=O | 157 to 159 °C
20 | Cc1nc2c3c(c(C(=O)N4CCC4)cc2n1C)CCC(c1ccccc1)O3 (stereo not given) | 241 to 242 °C
21 | CC1(C)CCC(C)(C)c2cc(OCc3ccc(CO)cc3)ccc21 | 108 to 109 °C
22 | CCCCOc1c(CNC(=O)OC(C)(C)C)n(CC(C)C)c(=O)c2ccc(NC(C)=O)cc12 | 174 to 175 °C
23 | CC(=O)OC1CCC2(C)C(CCC3C2CCC2(C)C(C(=O)C=[N+]=[N-])CCC32)C1 (stereo not given) | 135 to 136 °C
24 | COc1cc2c(cc1OC)C(C=Cc1ccc(N(C)C)cc1)=NN=C(C)C2 | 170 to 172 °C
25 | CCn1cc(C(=O)O)c(=O)c2cc(F)c(N3CCNC(c4cccs4)C3)cc21 (stereo not given) | 232 to 234 °C

Row | Compound | melting point
26 | CC(C)(C)C(NC(=O)c1cccc(Br)c1)Nc1c(Nc2cccnc2Cl)c(=O)c1=O (stereo not given) | 257 to 259 °C
27 | N#Cc1ccc(C2CC(=O)c3ccccc3N2)cc1 (stereo not given) | 206 to 208 °C
28 | O=C(Cc1ccccc1)Nc1cc(Cl)c(Cl)cc1[N+](=O)[O-] | 116 to 118 °C
29 | COc1cccc(-c2nc(-c3ccccc3C)n(C(=O)Nc3ccccc3)n2)c1 | 123 to 125 °C
30 | COC(=O)C1=C(CCc2ccccc2)NC(CC(=O)N2CCN(C)CC2)=C(C(=O)OC)C1c1c(Cl)cccc1Cl (stereo not given) | 138 to 139 °C
31 | COc1cc2c(C3=CCN(C[C@H](O)COc4cccc5[nH]ccc45)CC3)c[nH]c2cc1Cl | 115 to 120 °C
32 | CC(=O)NCCNc1nc(-c2ccccc2)nc2[nH]c(COc3ccccc3)cc12 | 196 to 197 °C
33 | CSC(=N)NC(c1ccccc1)c1ccc(C)cc1 (stereo not given) | 130 to 132 °C
34 | CCCCn1c(N)cc(=O)n(CCCC)c1=O | 90.1 to 92.4 °C
35 | O=C(Nc1cccc2c1ncc1c(=O)[nH]cnc12)c1c(Cl)cccc1Cl | > 250 °C
36 | CC1(C)OC(=O)Nc2ccc(/C(=C/C(N)=O)c3ccccc3)cc21 | 219 to 220 °C
37 | COC(=O)/C(O)=C1/C(=O)c2ccc(OC)cc2CC1C (stereo not given) | 89 to 89.6 °C
38 | CC(C)(C)OC(=O)COc1ccc(NC(=O)NC(=O)c2ccc(C#N)nc2)cc1 | 220 to 222 °C
39 | Cc1cccc(-c2cnn(-c3ccnc(-c4ccc(CN5CCOCC5)cc4)c3)c2)n1 | 128 °C
40 | CCOC(=O)C1=C(C(OCC)OCC)NC(C)=C(C(=O)OCCO)C1c1cccc([N+](=O)[O-])c1 (stereo not given) | 98 to 100 °C
41 | CCCn1c(=O)c2[nH]c(/C=C/c3cccs3)nc2n(CCC)c1=O | 270 °C
42 | O=C1N(CC2CCCO2)c2ccccc2C12COc1cc3c(cc12)OCC3 (stereo not given) | 162 to 164 °C
43 | O=C1N=C(c2ccccc2OCC2CC2)N=C2N=CN=C12 | 259 to 260 °C
44 | O=c1ccnc(NCCN(Cc2ccccc2)c2ccccn2)[nH]1 | 187 to 190 °C
45 | CCOC(=O)C1=C2c3[nH]c4ccc(Cl)cc4c3CCN2CCC1 | 82 to 83 °C
46 | Nc1nc(-c2cc(Cl)ccc2Cl)nc(N2CCCCC2)n1 | 192 to 194 °C
47 | O=C1c2ccccc2C(=O)N1CC1CCOC1 (stereo not given) | 114 to 118 °C
48 | CC(C)N1C(=O)C(C(N)=O)N(c2cc(Cl)cc(Cl)c2)C1=O (stereo not given) | 200 °C
49 | O=C(CCn1cnc2c(=O)[nH]cnc21)NCCc1c[nH]c2ccccc12 | 204 to 206 °C
50 | C#CCOc1cc(OCC#C)ncn1 | 74 °C
